Results from the supplement of paper PMC10307832.

Assays:
Assay in all cases: relative viability (nuclei count vs DMSO), 5 days (fraction); higher = more cells survive
NCI-H1648 = test system: NCI-H1648
Outline: (§1)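 Values are medians from duplicate plates. Each reflects relative viability, defined as the nuclei count of treated wells over that of vehicle wells. Lung cancer cell lines in 1536-well plates were pin-tool dosed one day after seeding with one drug alone or with a fixed anchor-drug dose plus five library-drug doses (not always all listed) in √10 steps, then fixed, stained and imaged at 4× after 5 days.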

NCI-H2342 = test system: NCI-H2342
Outline: as §1

NCI-H661 = test system: NCI-H661
Outline: as §1

HCC-78 = test system: HCC-78
Outline: as §1

NCI-H460 = test system: NCI-H460
Outline: as §1

NCI-H358 = test system: NCI-H358
Outline: as §1

NCI-H2009 = test system: NCI-H2009
Outline: as §1

NCI-H522 = test system: NCI-H522
Outline: as §1

IA-LM = test system: IA-LM
Outline: as §1

A549 = test system: A549
Outline: as §1

## Cc1sc2c(c1C)C(c1ccc(Cl)cc1)=N[C@@H](CC(=O)OC(C)(C)C)c1nnc(C)n1-2 [JQ1] + O=C(CCCCCCC(=O)Nc1ccccc1)NO [Vorinostat] (partner 1 µM)
NCI-H1648; first compound 0.04 µM
  relative viability: 0.392
NCI-H1648; first compound 0.1265 µM
  relative viability: 0.41
NCI-H1648; first compound 0.4 µM
  relative viability: 0.264
NCI-H1648; first compound 1.265 µM
  relative viability: 0.234
NCI-H1648; first compound 4 µM
  relative viability: 0.198
NCI-H2342; first compound 0.04 µM
  relative viability: 0.722
NCI-H2342; first compound 0.1265 µM
  relative viability: 0.592
NCI-H2342; first compound 0.4 µM
  relative viability: 0.87
NCI-H2342; first compound 1.265 µM
  relative viability: 0.73
NCI-H2342; first compound 4 µM
  relative viability: 0.714
NCI-H661; first compound 0.04 µM
  relative viability: 0.766
NCI-H661; first compound 0.1265 µM
  relative viability: 0.809
NCI-H661; first compound 0.4 µM
  relative viability: 0.677
NCI-H661; first compound 1.265 µM
  relative viability: 0.493
NCI-H661; first compound 4 µM
  relative viability: 0.456
HCC-78; first compound 0.04 µM
  relative viability: 0.436
HCC-78; first compound 0.1265 µM
  relative viability: 0.398
HCC-78; first compound 0.4 µM
  relative viability: 0.466
HCC-78; first compound 1.265 µM
  relative viability: 0.312
HCC-78; first compound 4 µM
  relative viability: 0.329
NCI-H460; first compound 0.04 µM
  relative viability: 0.672
NCI-H460; first compound 0.1265 µM
  relative viability: 0.621
NCI-H460; first compound 0.4 µM
  relative viability: 0.18
NCI-H460; first compound 1.265 µM
  relative viability: 0.0632
NCI-H460; first compound 4 µM
  relative viability: 0.0462
NCI-H358; first compound 0.04 µM
  relative viability: 0.662
NCI-H358; first compound 0.1265 µM
  relative viability: 0.628
NCI-H358; first compound 0.4 µM
  relative viability: 0.533
NCI-H358; first compound 1.265 µM
  relative viability: 0.161
NCI-H358; first compound 4 µM
  relative viability: 0.134
NCI-H2009; first compound 0.04 µM
  relative viability: 0.701
NCI-H2009; first compound 0.1265 µM
  relative viability: 0.444
NCI-H2009; first compound 0.4 µM
  relative viability: 0.429
NCI-H2009; first compound 1.265 µM
  relative viability: 0.264
NCI-H2009; first compound 4 µM
  relative viability: 0.201
NCI-H522; first compound 0.04 µM
  relative viability: 0.984
NCI-H522; first compound 0.1265 µM
  relative viability: 0.71
NCI-H522; first compound 0.4 µM
  relative viability: 0.737
NCI-H522; first compound 1.265 µM
  relative viability: 0.497
NCI-H522; first compound 4 µM
  relative viability: 0.368
IA-LM; first compound 0.04 µM
  relative viability: 0.925
IA-LM; first compound 0.1265 µM
  relative viability: 0.888
IA-LM; first compound 0.4 µM
  relative viability: 0.197
IA-LM; first compound 1.265 µM
  relative viability: 0.0917
IA-LM; first compound 4 µM
  relative viability: 0.0701

## Cc1sc2c(c1C)C(c1ccc(Cl)cc1)=N[C@@H](CC(=O)OC(C)(C)C)c1nnc(C)n1-2 [JQ1] + Nc1ncn([C@H]2C[C@H](O)[C@@H](CO)O2)c(=O)n1 [Decitabine] (partner 2 µM)
NCI-H1648; first compound 0.04 µM
  relative viability: 0.497
NCI-H1648; first compound 0.1265 µM
  relative viability: 0.652
NCI-H1648; first compound 0.4 µM
  relative viability: 0.409
NCI-H1648; first compound 1.265 µM
  relative viability: 0.398
NCI-H1648; first compound 4 µM
  relative viability: 0.286
NCI-H2342; first compound 0.04 µM
  relative viability: 0.79
NCI-H2342; first compound 0.1265 µM
  relative viability: 0.636
NCI-H2342; first compound 0.4 µM
  relative viability: 0.737
NCI-H2342; first compound 1.265 µM
  relative viability: 0.76
NCI-H2342; first compound 4 µM
  relative viability: 0.665
NCI-H661; first compound 0.04 µM
  relative viability: 0.505
NCI-H661; first compound 0.1265 µM
  relative viability: 0.47
NCI-H661; first compound 0.4 µM
  relative viability: 0.527
NCI-H661; first compound 1.265 µM
  relative viability: 0.475
NCI-H661; first compound 4 µM
  relative viability: 0.492
HCC-78; first compound 0.04 µM
  relative viability: 0.604
HCC-78; first compound 0.1265 µM
  relative viability: 0.529
HCC-78; first compound 0.4 µM
  relative viability: 0.691
HCC-78; first compound 1.265 µM
  relative viability: 0.563
HCC-78; first compound 4 µM
  relative viability: 0.588
NCI-H460; first compound 0.04 µM
  relative viability: 0.488
NCI-H460; first compound 0.1265 µM
  relative viability: 0.344
NCI-H460; first compound 0.4 µM
  relative viability: 0.296
NCI-H460; first compound 1.265 µM
  relative viability: 0.165
NCI-H460; first compound 4 µM
  relative viability: 0.226
NCI-H358; first compound 0.04 µM
  relative viability: 0.212
NCI-H358; first compound 0.1265 µM
  relative viability: 0.227
NCI-H358; first compound 0.4 µM
  relative viability: 0.235
NCI-H358; first compound 1.265 µM
  relative viability: 0.188
NCI-H358; first compound 4 µM
  relative viability: 0.206
A549; first compound 0.04 µM
  relative viability: 0.275
A549; first compound 0.1265 µM
  relative viability: 0.267
A549; first compound 0.4 µM
  relative viability: 0.378
A549; first compound 1.265 µM
  relative viability: 0.405
A549; first compound 4 µM
  relative viability: 0.252
NCI-H2009; first compound 0.04 µM
  relative viability: 0.38
NCI-H2009; first compound 0.1265 µM
  relative viability: 0.296
NCI-H2009; first compound 0.4 µM
  relative viability: 0.354
NCI-H2009; first compound 1.265 µM
  relative viability: 0.276
NCI-H2009; first compound 4 µM
  relative viability: 0.213
NCI-H522; first compound 0.04 µM
  relative viability: 0.656
NCI-H522; first compound 0.1265 µM
  relative viability: 0.635
NCI-H522; first compound 0.4 µM
  relative viability: 0.661
NCI-H522; first compound 1.265 µM
  relative viability: 0.473
NCI-H522; first compound 4 µM
  relative viability: 0.501
